US10292998B1, “Compositions and methods for prevention and treatment of eye infections” (priority 2018, dated 2019)

What was measured:
[1] = cited from earlier work
viral conjunctivitis = conditions: cited from earlier work
[2] = test system: bacteria on the eye surface; conditions: 0.5%-0.7% PVP-I solution by volume dripped into the eye over 30 seconds, repeated every 90 seconds four times; cited from earlier work
[3] = test system: bacterial and viral infections; experiment: Treatment and prevention of eye infections, summary of the experiments; assay type: in vivo, human
Source text: Experiments have determined that PVP-I can be mixed with N-acetylcysteine (NAC), preferably in combination with an aqueous solution such as saline or water for improved lubrication, to form a medical eye drop treatment, which has the unexpected result of greatly reducing the bacteria count while simultaneously maintaining the pain at a tolerable level, or in some cases reducing the pain to a non-perceptible level. The active treatment components are preferably mixed by stirring at room temperature (that is, roughly 15-25° C.) and added to an aqueous solution. The PVP-I concentration of the mixture can be as low as 1.25% by volume of the treatment composition without substantially reducing its effectiveness at preventing eye infections of bacterial, viral, and fungal varieties.
Experiments were performed with differing ratios of PVP-I, NAC, and aqueous solution in combination. The PVP-I percentage by volume was varied between 0.5% and 80%, and the NAC percentage by volume was varied between 0.5% and 10%. The combinations were then applied, with one or more drops of the composition, each between 7 and 30 microliters in total volume, applied by syringe to the eye of a patient over a period of between 30 and 180 seconds.
An average eye drop contains 35 microliters, but the space between the human eye and the eyelid can only contain, in an average adult human, approximately 7 microliters of liquid. A human instinctively blinks upon addition of an eye drop to the eye, thereby forcing out most of the eye drop. As a result, only a fraction of a first eye drop will remain in the eye to mix with a second eye drop. […] As a result, the composition described above is not achieved.

[4] = test system: bacteria on the surface of the eyeball; experiment: Bacterial count on the surface of the eyeball after eye drops of PVP-I/NAC combinations; assay type: in vivo, human; conditions: NAC alone
Source text: The combinations were then applied, with one or more drops of the composition, each between 7 and 30 microliters in total volume, applied by syringe to the eye of a patient over a period of between 30 and 180 seconds. […] In comparison, experiments using NAC alone was ineffective in lowering bacterial count.

Compound | tolerability on the eye ([1]; 1.25% or 2.5% PVP-I concentrations) | pain during application ([1]; 10% PVP-I concentration by volume, surface of the eye) | pain on application to the human eye ([1]; PVP-I especially at concentrations greater than 2.5% by volume) | treating pre-existing infections, especially viral infections such as viral conjunctivitis (viral conjunctivitis; PVP-I without NAC) | effect on viral conjunctivitis infections (viral conjunctivitis; solution of 1.25% PVP-I by volume without NAC, previous study) | reduction of bacteria on the eye surface [2] [%] | discomfort ([3]; summary of experiments) | treating and preventing bacterial infections ([3]; summary of experiments) | treating viral infections ([3]; summary of experiments) | treating or preventing infections ([3]; NAC without PVP-I) | lowering bacterial count [4]
Povidone-iodine [PVP-I] | tolerable but still highly irritating | intolerable | extreme immediate pain and a continuing burning sensation | largely ineffective | no significant effect | 99.9 | highly uncomfortable | effective | ineffective |  | 
CC(=O)N[C@@H](CS)C(=O)O [NAC, N-acetylcysteine] |  |  |  |  |  |  |  |  |  | ineffective | ineffective
